Columns and labels:
[1] = system: Trypanosoma cruzi; experiment: AntiTrypanosoma cruzi activity IC50 (uM); type: functional, organism-based
[2] = system: Trypanosoma brucei; experiment: AntiTrypanosoma brucei activity T. b. brucei IC50 (uM); type: functional, organism-based
[3] = system: Trypanosoma brucei; experiment: AntiTrypanosoma brucei activity T. b. rhodesiense IC50 (uM); type: functional, organism-based
[4] = system: Leishmania infantum; experiment: AntiLeishmania activity L. infantum (macrophages) IC50 (uM); type: functional, organism-based
[5] = system: HepG2; experiment: Cytotoxicity data HepG2 CC20 (uM); type: functional
[6] = system: MRC5; experiment: MRC5 CC50 (uM) Cytotoxicity; type: functional; conditions: Homo sapiens
[7] = PMM CC50 (uM) Cytotoxicity; type: functional; conditions: Macrophage
[8] = system: Plasmodium berghei; experiment: Antimalarial activity: Liver Stage Plasmodium berghei sporozoite Luciferase assay: inhibition at 10 uM (%); type: functional
[9] = system: Plasmodium berghei; experiment: Antimalarial activity: Liver Stage Plasmodium berghei sporozoite Luciferase assay IC50 (uM); type: functional, organism-based
[10] = system: Plasmodium falciparum; experiment: Antimalarial activity: Gametocytes Plasmodium falciparum NF54 Gametocytes Stage V: inhibition at 10 uM (%); type: functional
[11] = system: HepG2; experiment: HepG2 CC50 (uM) Cytotoxicity; type: functional; conditions: Homo sapiens
[12] = system: Plasmodium falciparum; experiment: Antimalarial activity: Asexual Blood Stage Plasmodium falciparum 3D7 IC50 (uM); type: functional, organism-based
[13] = system: Plasmodium falciparum; experiment: Antimalarial activity: Asexual Blood Stage Plasmodium falciparum Dd2 IC50 (uM); type: functional, organism-based

Row | SMILES | IC50 [1] [µM] | IC50 [2] [µM] | IC50 [3] [µM] | IC50 [4] [µM] | CC20 [5] [µM] | CC50 [6] [µM] | CC50 [7] [µM] | Inhibition [8] [%] | IC50 [9] [µM] | Inhibition [10] [%] | CC50 [11] [µM] | IC50 [12] [µM] | IC50 [13] [µM]
1 | CO[C@@H]1CN(c2ccc(C#CC3(O)CN4CCC3CC4)c(Cc3ccccc3)n2)C[C@H]1O (stereo not given in full) | < 0.13 | 16.1 | 4 | 17.3 | 38.4 | > 32 | > 32 | – | – | – | – | – | –
2 | COc1cc(C2=NCCN2)cc2cc(-c3ccc(C4=NCCN4)cc3)oc12 | 13.3 | 14.5 | 0.78 | > 32 | 14.3 | > 32 | > 32 | – | – | – | – | – | –
3 | C[C@H](C(N)=O)N1CCCC[C@@H]1c1ccc(OCc2cccc(F)c2)cc1 | – | – | – | – | 21.8 | – | – | 99 | 1.77 | 5 | > 10 | – | –
4 | CC1=Nc2ccc(Cl)cc2C(O)(c2ccc(C)cc2)N1CCN1CCCCC1 (stereo not given) | 4.04 | 0.98 | 0.43 | 4.06 | 10 | 16 | 4 | – | – | – | – | – | –
5 | c1cc(C2=NCCN2)cc(-c2cc(-c3ccc(C4=NCCN4)cc3)no2)c1 | > 32 | 5.63 | 3 | > 32 | 4.51 | > 32 | > 32 | – | – | – | – | – | –
6 | O=C(Nc1ccc2c(c1)B(O)OC2)c1ccccc1C(F)(F)F | 0.27 | 0.15 | 0.23 | 1.41 | 0.41 | > 32 | 16 | – | – | – | – | – | –
7 | CC1COC(Cn2cncn2)(c2ccc(Oc3ccc(Cl)cc3)cc2Cl)O1 (stereo not given) [DIFENOCONAZOLE] | 0.01 | 32.5 | 26.2 | 44.7 | – | 30.9 | > 64 | 85 | – | – | – | – | –
8 | Cc1cc(C(=O)Nc2cnn(Cc3ccc(Cl)cc3Cl)c2)no1 | – | – | – | – | 30.6 | – | – | 98 | 1.39 | 11 | > 10 | 1.88 | > 2
9 | O=C(NCc1nnc2n1CCCCC2)c1ccc(-c2ccc(F)cc2)o1 | 2.07 | 0.1 | 0.13 | > 64 | – | > 64 | > 64 | – | – | – | – | – | –
10 | CN1CCCN(C(c2ccccc2)c2ccc(Cl)cc2)CC1 (stereo not given) [HOMOCHLORCYCLIZINE] | 9.44 | 4.64 | 1.94 | 36.3 | – | 31.8 | 48 | – | – | – | – | – | –
11 | C[C@H](C(N)=O)N1CCCC[C@H]1c1ccc(OCc2cccc(F)c2)cc1 | – | – | – | – | >80 | – | – | 95 | 1.36 | 0 | > 10 | > 2 | > 2
12 | Cc1nn(C)c(C)c1NS(=O)(=O)c1c(Cl)cc(-c2ccnc(N3CCNCC3)c2)cc1Cl | 0.85 | < 0.13 | < 0.13 | 1.01 | 0.05 | 2 | 1 | – | – | – | – | – | –
13 | O=C(NCCc1ccn(-c2ccccc2)n1)C1CCCCC1 | 0.73 | 0.15 | < 0.13 | > 64 | – | > 64 | > 64 | – | – | – | – | – | –
14 | COc1ccc(C2=NCCN2)cc1-c1cn(-c2cccc(C3=NCCN3)c2)nn1 | > 32 | > 32 | 1.63 | > 32 | >80 | > 32 | > 32 | – | – | – | – | – | –
15 | Cc1ccc(S(=O)(=O)Nc2ccc(CN3CCN(C(=O)c4cccc(C#N)c4)CC3)cc2)cc1 | 1.2 | 0.14 | 0.12 | 32 | – | > 64 | > 64 | – | – | – | – | – | –
16 | CC(=O)Nc1ccc(-c2noc(CC3CCCN(Cc4cccc(F)c4C)C3)n2)cc1 (stereo not given) | 2.8 | 32.3 | 25.1 | 1.59 | – | 29.4 | > 64 | – | – | – | – | – | –
17 | N=C(N)Nc1ccc(-c2ccc(-c3ccc(NC(=N)N)cc3Cl)o2)c(Cl)c1 | 0.29 | 1.03 | 0.23 | 1.01 | 6.75 | 11.6 | 1 | – | – | – | – | – | –
18 | COc1ccc(CN2CCOc3ccc(C(C)(O)CN(C)C)cc3C2)cc1C (stereo not given) | – | – | – | – | 17.4 | – | – | 64 | 0.93 | 7 | > 10 | > 2 | 1.47
19 | Cc1nn2c(=O)c3c([nH]c2c1-c1ccc(Cl)cc1)CCCC3 | 0.71 | 0.49 | 0.14 | 44 | – | > 64 | 48 | – | – | – | – | – | –
20 | CNC(=O)c1nn(C)c2c1C(C)(C)Cc1cnc(Nc3ccc(N4CCN(C)CC4)cc3)nc1-2 [MILCICLIB] | 1.05 | < 0.13 | < 0.13 | 0.85 | <0.26 | 1.1 | 1 | – | – | – | – | – | –

Row | SMILES | IC50 [1] [µM] | IC50 [2] [µM] | IC50 [3] [µM] | IC50 [4] [µM] | CC20 [5] [µM] | CC50 [6] [µM] | CC50 [7] [µM] | Inhibition [8] [%] | IC50 [9] [µM] | Inhibition [10] [%] | CC50 [11] [µM] | IC50 [12] [µM] | IC50 [13] [µM]
21 | CC(C)(C)C(O)C(Oc1ccc(-c2ccccc2)cc1)n1cncn1 (stereo not given) [BITERTANOL] | 0.06 | 32.9 | 28 | > 64 | – | > 64 | > 64 | 46 | – | – | – | – | –
22 | CCN(CC)S(=O)(=O)c1ccc(C(=O)Nc2cc(C)nn2-c2nc(C)c(C)c(=O)[nH]2)cc1 | 1.96 | 5.3 | 1.7 | 6.87 | – | 6.6 | > 64 | – | – | – | – | – | –
23 | CO[C@@H](C(=O)N1Cc2[nH]nc(NC(=O)c3ccc(N4CCN(C)CC4)cc3)c2C1)c1ccccc1 [DANUSERTIB] | 6.48 | 1.02 | 0.37 | 4.06 | 4.83 | 2.7 | 4 | – | – | – | – | – | –
24 | COc1cc(C2=NCCN2)ccc1-c1cn(-c2cccc(C3=NCCN3)c2)nn1 | 25 | > 32 | 3.72 | > 32 | 22.9 | > 32 | > 32 | – | – | – | – | – | –
25 | c1ccc(Oc2ccc(-c3cc(C4CCOCC4)[nH]n3)cc2)cc1 | 16.4 | 7.58 | 3.77 | > 32 | 10.8 | 22.8 | > 32 | – | – | – | – | – | –
26 | N=C(N)Nc1ccc(-c2ccc(-c3ccc(N=C(N)N)c(Cl)c3)o2)cc1Cl | 0.66 | 0.6 | 0.2 | 10.2 | 13.5 | 15.4 | 16 | – | – | – | – | – | –
27 | NCCN(C(=O)c1ccc(Cl)cc1Cl)c1ccc(OCc2ccc(Cl)cc2)cc1 | 0.62 | < 0.13 | < 0.13 | 0.63 | – | 4 | 1 | – | – | – | – | – | –
28 | CNC(=O)C1Cc2ccccc2N1C(=O)Cc1ccc(F)cc1 (stereo not given) | > 64 | 0.49 | 0.38 | > 64 | – | > 64 | > 64 | – | – | – | – | – | –
29 | CC1=Nc2ccc(Cl)cc2C(c2ccccc2)N1CCNC(=O)CN(C)C (stereo not given) | 17.1 | 3.78 | 3.11 | 10.1 | 16.4 | 16 | > 32 | – | – | – | – | – | –
30 | O=C(NC1CC1)c1ccc(N2CCOc3ccc(Cl)cc32)s1 | – | – | – | – | – | – | – | 98 | 3.48 | 18 | > 10 | 1.03 | –
31 | CCCCN(CCCC)c1c(C#N)cc(S(=O)(=O)Nc2ccccc2)cc1C#N | 0.82 | 0.26 | 0.24 | 13.6 | 11.9 | 3.9 | 16 | – | – | – | – | – | –
32 | CCc1nn(C)c(C(=O)NCc2ccc(Oc3ccc(C)cc3)cc2)c1Cl [TOLFENPYRAD] | 5.35 | 33 | 20.4 | 45.6 | – | 56 | 48 | 94 | – | – | – | – | –
33 | CCc1ccccc1-n1c(C)cn2c3c(=O)n(C(C(=O)OC)C(C)C)c(=O)n(C)c3nc12 (stereo not given) | 0.99 | < 0.13 | < 0.13 | > 32 | 44.3 | > 32 | > 32 | – | – | – | – | – | –
34 | CO/N=C(\C(=O)OC)c1ccccc1CO/N=C(\C)c1cccc(C(F)(F)F)c1 | 1.94 | 33.6 | 26.2 | > 64 | – | > 64 | > 64 | 100 | – | – | – | 0.3 | –
35 | COc1cc(C2=NCCN2)ccc1-n1cc(-c2cccc(C3=NCCN3)c2)nn1 | > 32 | > 32 | 3.81 | > 32 | >80 | > 32 | > 32 | – | – | – | – | – | –
36 | Clc1ccc(CN2CCN(C3=NCCN3)CC2)cc1Cl | 6.57 | 31.6 | 30.1 | > 64 | – | > 64 | > 64 | – | – | – | – | – | –
37 | N=C(N)c1ccc(-c2cc(-c3ccccc3)on2)cc1 | 4.04 | 4.06 | 1.08 | 2.54 | 2.64 | 12.2 | 4 | – | – | – | – | – | –
38 | COc1ccc(S(=O)(=O)Nc2ccc(CN3CCN(C(=O)c4cccc(C#N)c4)CC3)cc2)cc1 | 2.7 | 0.5 | 0.4 | 52.2 | – | > 64 | > 64 | – | – | – | – | – | –
39 | Cc1nn2c(O)c3c(nc2c1-c1ccc(F)cc1)CCCC3 | 2.21 | 1.94 | 0.48 | 50.4 | – | > 64 | > 64 | – | – | – | – | – | –
40 | c1ccc(Oc2ccc(-c3cc(N4CCNCC4)[nH]n3)cc2)cc1 | 4.48 | 0.99 | 0.97 | 4.06 | 6.43 | 16 | 4 | – | – | – | – | – | –
